One assay has as its target CRBN-DDB1 (Homo sapiens, UniProt Q96SW2). Nature of the assay: Compound binding to CRBN by HTRF assay. As to conditions: CRBN-DDB1 2.5 nM, Cy5-Thalidomide 100 nM, 30 min at ambient temperature; read-out: HTRF Class (Cereblon binding, HTRF IC50). The procedure: Example 146: Compound Binding to CRBN by HTRF Assay
Compound activity was monitored in a Homogenous Time-Resolved Fluorescence (HTRF) assay using 1-[5-({2-[2-(2-{[2-(2,6-dioxopiperidin-3-yl)-1,3-dioxo-2,3-dihydro-1H-isoindol-4-yl]oxy}acetamido)ethoxy]ethyl}carbamoyl)pentyl]-3,3-dimethyl-2-[(1E,3E)-5-[(2E)-1,3,3-trimethyl-5-sulfo-2,3-dihydro-1H-indol-2-ylidene]penta-1,3-dien-1-yl]-3H-indol-1-ium-5-sulfonate as a fluorescent probe. Biochemical assays were conducted in Greiner white 384 well HiBase plates (Cat. No 784075-25) in 10 μL total volume. A one pot detection solution of CRBN-DDB1 (2.5 nM), Anti-His Terbium Cryptate Gold (1X, PerkinElmer Cat. #: 61HI2TLB), and Cy5-Thalidomide (100 nM, Tenova Cat.: T52461) was prepared in 20 mM HEPES, 20 mM NaCl, 0.2 mM TCEP, 0.2 mM EDTA, and 0.005% Tween20 was dispensed to each assay plate. Compounds were stored in dry, ambient temperatures at 10 mM. A 10-point, 1:3 dilution series was prepared from 10 mM stock concentrations in Echo-compatible LDV plates. 10 nL of each compound dilution series was dispensed into assays wells using an Echo 650 (Labcyte inc. USA). 10 nL of 10 mM Lenalidomide was transferred into the active-control wells for the assay and 10 nL of DMSO was transferred into the neutral-control wells. The assay was then allowed to incubate for 30 min at ambient temperature after transferring compound. Plate measurements were taken on a Pherastar FSX (BMG Labtech, Germany) using the HTRF Red filter (Ex. 337 nm, em1: 620 nm, em2: 665 nm) (Flashes: 50, Integration time: 60-400 us, Z-height: 10 mm, Ratio-multiplier: 10,000). The HTRF signal was then subsequently normalized to the neutral and active controls. Analysis and IC50 values were derived using KNIME analytics (KNIME Zurich) transformation and fitting within Collaborative Drug Discovery (Collaborative Drug Discovery USA). Ki was derived from the geometric mean of the IC50 values using the Cheng-Prustoff transformation.
(§1) In Table 2, each compound is assigned a class (HTRF class) indicating the ability for Cereblon binding by means of their HTRF IC50 values according to […]: A, B, C or D. According to the code, A represents an IC50 value of ≤100 nM, B represents an IC50 value>100 nM and ≤1000 nM, C represents an IC50 value>1000 nM. IF Class assigns each compound a code indicating the ability for GSPT1 degradation: A, B or C. According to the code, A represents a DC50 value of ≤30 nM, B represents a DC50 value>30 nM and ≤300 nM and C represents a DC50 value of >300 nM.
Background: In TR-FRET formats the signal depends on donor and acceptor labels being close together.

A further assay concerns the target T1, GSPT1 (Homo sapiens, UniProt P15170+Q96SW2).
T1 construct: CAL-51 cells were purchased from DSMZ (cat. Number ACC302); host or cells: CAL-51
The assay can be described thus: Immunofluorescence assay for activity to degrade GSPT1 in CAL-51 cells. The settings on record: 6 h treatment, read-out: IF Class (GSPT1 degradation, DC50). The class given is cell-based. The procedure: Example 147: Compound Activity by Immunofluorescence Assay
The representative compounds were tested in an immunofluorescence assay for their activity to degrade GSPT1. CAL-51 cells were purchased from DSMZ (cat. Number ACC302), sub-cultured in 90% Dulbecco's MEM (4.5 g/L glucose, Gibco 11965)+10% heat inactivated FBS (BioConcept, 2-01F136I) and incubated at 37° C., 5% CO2. For the assay imaging microtiter plate Cell Carrier 96 Ultra (Perkin Elmer 6055302) were pre-coated with Fibronectin (Sigma F085, 30 μL at 0.2 μg/mL) in PBS (100 μL, Gibco 14190) for 45 min at room temperature, rinsed with PBS and CAL-51 cells (30K cells/well) were plated and let to adhere overnight. Cells were treated with compounds typically using a serial dilution ranging from 30 μM to 0.1 nM for 6 h. Compounds were stored at 10 mM DMSO stocks. Vehicle (DMSO), positive (CC-885, 10 μM) and rescue controls (positive control plus 0.2 μM bortezomib) were also included at this stage. Cells were subsequently rinsed with PBS and fixed in 10% Formalin solution (50 μL, Sigma HT5011)) for 20 mins at room temperature. Following three consecutive PBS washes (100 μL), cells were permeabilized in 0.1% Triton X-100 in PBS (Sigma 93443, 50 μL) for 15 min. at room temperature. Following three further PBS washes, 50 μL blocking buffer (1% BSA, Sigma A4503, in PBS) was added for 45 min for signal-to noise reduction. Primary antibody (human GSPT1, Sigma HPA052488) was diluted in blocking buffer (dil.1/300, 35 μL/well) and incubated with the cells overnight at 4° C. After three PBS washes, Alexa-fluor 488 coupled secondary antibodies (Invitrogen, A32731, dil. 1/1000), Alexa-fluor 647-Phalloidin (Invitrogen, A22287, dil. 1/200) and DAPI (Thermo, #62248, dil. 1/1000) were diluted in blocking buffer and incubated with the samples for 2 h at room temperature. After three final PBS washes, samples were conserved in 100 μL PBS in the dark, until measurement. Image acquisition was performed on the Operetta High-Content Imager (Perkin-Elmer). Fluorescence intensity of […] (GSPT1), Alexa-Fluor 647 (Actin) and DAPI (Nucleus) were measured. For the determination of GSPT1 DC50 values, a custom algorithm implemented in the PerkinElmer image analysis software Harmony-Acapella® was developed. After user-defined setting of adjustment parameters, the analysis was run identically without human intervention for all image fields. DAPI staining of the nuclei was used to determine the location of cells using standard nuclei detection modules. Segmentation artifacts were removed by threshold-based filters for area, roundness and intensity. The outline of the cells was determined analogously from the sum of the normalized, smoothed DAPI and Actin channel, starting from each nucleus. The Alexa-Fluor 488 (GSPT1) signal intensity in each cell was finally measured, in order to obtain a Mean intensity per cell. GSPT1 degradation (DC50) was calculated after normalization to controls and data import in CDD vault Database, using non-linear regression.
as §1

Structures are written as SMILES.

From patent US20240308976A1, “COMPOUNDS THAT MEDIATE PROTEIN DEGRADATION AND USES THEREOF” (Monte Rosa Therapeutics, Inc., priority 2021, published 2024) come the findings set out here.

T1 sequence (P15170 whole entry): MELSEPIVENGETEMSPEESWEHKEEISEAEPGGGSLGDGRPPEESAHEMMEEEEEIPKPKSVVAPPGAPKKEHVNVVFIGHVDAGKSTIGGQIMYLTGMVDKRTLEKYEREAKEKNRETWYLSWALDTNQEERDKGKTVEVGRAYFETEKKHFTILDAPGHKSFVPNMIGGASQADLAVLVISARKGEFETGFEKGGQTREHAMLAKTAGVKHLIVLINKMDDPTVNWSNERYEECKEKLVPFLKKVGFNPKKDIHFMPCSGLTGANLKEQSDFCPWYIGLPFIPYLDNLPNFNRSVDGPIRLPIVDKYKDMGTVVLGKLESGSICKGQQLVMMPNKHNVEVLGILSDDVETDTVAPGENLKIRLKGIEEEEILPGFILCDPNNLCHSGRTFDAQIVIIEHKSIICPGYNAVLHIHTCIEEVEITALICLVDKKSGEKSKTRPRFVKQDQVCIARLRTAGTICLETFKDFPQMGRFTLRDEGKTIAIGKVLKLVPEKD
T1 sequence (Q96SW2 whole entry): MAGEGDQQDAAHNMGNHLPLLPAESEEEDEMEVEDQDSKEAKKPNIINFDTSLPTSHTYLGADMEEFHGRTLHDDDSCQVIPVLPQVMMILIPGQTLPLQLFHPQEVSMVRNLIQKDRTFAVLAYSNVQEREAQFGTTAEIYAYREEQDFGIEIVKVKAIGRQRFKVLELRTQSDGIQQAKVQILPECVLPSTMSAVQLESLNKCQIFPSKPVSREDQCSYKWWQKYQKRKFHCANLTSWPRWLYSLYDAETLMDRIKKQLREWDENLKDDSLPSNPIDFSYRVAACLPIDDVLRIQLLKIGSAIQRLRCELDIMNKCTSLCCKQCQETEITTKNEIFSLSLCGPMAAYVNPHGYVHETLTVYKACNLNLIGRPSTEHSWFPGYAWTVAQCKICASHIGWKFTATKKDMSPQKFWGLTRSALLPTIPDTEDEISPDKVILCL
T1 sequence (Q16531 2-1140 partner limits assumed): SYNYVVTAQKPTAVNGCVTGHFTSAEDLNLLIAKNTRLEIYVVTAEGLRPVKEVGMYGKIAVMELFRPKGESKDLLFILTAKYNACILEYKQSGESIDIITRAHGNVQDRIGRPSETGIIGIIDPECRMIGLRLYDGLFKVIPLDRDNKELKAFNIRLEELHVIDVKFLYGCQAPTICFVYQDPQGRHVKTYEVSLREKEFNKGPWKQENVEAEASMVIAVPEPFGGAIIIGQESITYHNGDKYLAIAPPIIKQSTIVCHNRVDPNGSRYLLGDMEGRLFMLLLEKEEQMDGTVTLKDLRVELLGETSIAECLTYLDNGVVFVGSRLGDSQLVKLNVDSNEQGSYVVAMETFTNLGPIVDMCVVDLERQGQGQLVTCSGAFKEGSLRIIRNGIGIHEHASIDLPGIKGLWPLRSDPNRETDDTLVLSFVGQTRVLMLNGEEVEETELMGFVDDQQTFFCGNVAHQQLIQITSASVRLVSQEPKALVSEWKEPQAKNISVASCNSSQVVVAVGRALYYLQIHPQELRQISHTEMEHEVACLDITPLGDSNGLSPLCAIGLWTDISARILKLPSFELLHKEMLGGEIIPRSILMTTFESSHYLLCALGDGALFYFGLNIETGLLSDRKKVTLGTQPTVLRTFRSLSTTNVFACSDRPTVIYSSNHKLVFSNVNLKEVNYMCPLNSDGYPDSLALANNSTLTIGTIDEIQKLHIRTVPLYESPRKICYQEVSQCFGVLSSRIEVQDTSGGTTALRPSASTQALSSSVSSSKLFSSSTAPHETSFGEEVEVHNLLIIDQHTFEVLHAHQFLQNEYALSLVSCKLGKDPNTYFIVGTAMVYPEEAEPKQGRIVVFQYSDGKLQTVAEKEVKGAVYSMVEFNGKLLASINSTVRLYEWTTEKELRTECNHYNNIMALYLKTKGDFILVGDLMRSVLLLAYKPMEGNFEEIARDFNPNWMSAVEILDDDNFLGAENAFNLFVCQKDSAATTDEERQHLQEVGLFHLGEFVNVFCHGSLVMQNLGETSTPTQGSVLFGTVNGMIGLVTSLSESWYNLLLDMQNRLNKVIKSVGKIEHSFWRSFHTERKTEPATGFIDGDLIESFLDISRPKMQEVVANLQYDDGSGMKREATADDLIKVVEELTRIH
Chain of CRBN-DDB1 (Q96SW2 whole entry): as the sequence (Q96SW2 whole entry) above
Chain of CRBN-DDB1 (Q16531 whole entry partner): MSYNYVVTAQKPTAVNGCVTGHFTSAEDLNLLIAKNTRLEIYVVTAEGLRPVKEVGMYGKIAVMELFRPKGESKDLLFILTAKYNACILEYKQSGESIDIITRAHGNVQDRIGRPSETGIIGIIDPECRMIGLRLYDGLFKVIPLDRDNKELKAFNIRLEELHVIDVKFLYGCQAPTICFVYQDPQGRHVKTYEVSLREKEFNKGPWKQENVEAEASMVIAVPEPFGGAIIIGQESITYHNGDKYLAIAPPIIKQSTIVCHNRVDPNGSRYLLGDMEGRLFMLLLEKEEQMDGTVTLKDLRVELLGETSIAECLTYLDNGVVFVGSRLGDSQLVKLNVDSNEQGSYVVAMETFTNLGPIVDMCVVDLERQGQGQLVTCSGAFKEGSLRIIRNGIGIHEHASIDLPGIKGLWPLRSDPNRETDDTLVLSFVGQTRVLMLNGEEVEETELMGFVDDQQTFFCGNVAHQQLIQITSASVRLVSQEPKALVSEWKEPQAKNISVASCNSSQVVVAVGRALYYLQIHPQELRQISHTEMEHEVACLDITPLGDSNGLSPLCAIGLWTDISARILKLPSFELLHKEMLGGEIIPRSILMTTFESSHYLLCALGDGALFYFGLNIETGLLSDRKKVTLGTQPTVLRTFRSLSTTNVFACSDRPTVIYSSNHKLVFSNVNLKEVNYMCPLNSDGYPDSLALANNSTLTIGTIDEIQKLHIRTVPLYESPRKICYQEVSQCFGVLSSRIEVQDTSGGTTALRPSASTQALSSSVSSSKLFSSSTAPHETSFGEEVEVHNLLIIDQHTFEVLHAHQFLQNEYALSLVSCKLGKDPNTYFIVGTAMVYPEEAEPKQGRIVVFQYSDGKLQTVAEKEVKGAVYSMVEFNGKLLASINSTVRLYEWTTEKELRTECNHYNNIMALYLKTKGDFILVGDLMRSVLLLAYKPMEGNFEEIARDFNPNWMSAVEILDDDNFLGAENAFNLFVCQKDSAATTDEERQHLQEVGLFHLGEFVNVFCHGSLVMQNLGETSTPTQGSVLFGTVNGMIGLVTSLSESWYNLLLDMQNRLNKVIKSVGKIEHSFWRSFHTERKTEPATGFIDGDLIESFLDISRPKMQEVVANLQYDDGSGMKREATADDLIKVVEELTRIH

As a reminder, the IC50 is the concentration that gives 50% inhibition. Broadly, the DC50 is the concentration at which degradation of the target reaches its halfway point. With `O=C1CCC(c2c(F)cc(N3CC(OC(=O)Nc4cccc(OC(F)F)c4)C3)cc2F)C(=O)N1` (stereo not shown) [Compound 14, 1-(4-(2,6-dioxopiperidin-3-yl)-3,5-difluorophenyl)azetidin-3-yl (3-(difluoromethoxy)phenyl)carbamate], the IC50 at CRBN-DDB1 was 100 to 1000 nM. The DC50 at GSPT1 is not above 30 nM.

For the compound `O=C1CCC(c2c(F)cc(N3CC(NC(=O)Nc4cccc(OC(F)F)c4)C3)cc2F)C(=O)N1` (stereo not shown) [Compound 15, 1-(3-(difluoromethoxy)phenyl)-3-(1-(4-(2,6-dioxopiperidin-3-yl)-3,5-difluorophenyl)azetidin-3-yl)urea], on CRBN-DDB1, the IC50 was not above 100 nM. In addition, at GSPT1, the DC50 is 30 to 300 nM.

Regarding `O=C1CCC(c2c(F)cc(N3CC(NC(=O)Nc4cc(F)cc(Cl)c4)C3)cc2F)C(=O)N1` (stereo not shown) [Compound 16, 1-(3-chloro-5-fluorophenyl)-3-(1-(4-(2,6-dioxopiperidin-3-yl)-3,5-difluorophenyl)azetidin-3-yl)urea], the IC50 on CRBN-DDB1 was in the range of 100 to 1000 nM. In addition, on GSPT1, the DC50 fell in the range of 30 to 300 nM.

As for `O=C1CCC(c2c(F)cc(N3CC(NC(=O)Nc4cccc(OC5CC5)c4)C3)cc2F)C(=O)N1` (stereo not shown) [Compound 17, 1-(3-cyclopropoxyphenyl)-3-(1-(4-(2,6-dioxopiperidin-3-yl)-3,5-difluorophenyl)azetidin-3-yl)urea], on CRBN-DDB1, the IC50 lay within 100 to 1000 nM. Further, the DC50 on GSPT1 fell in the range of 30 to 300 nM.

Turning to `O=C1CCC(c2c(F)cc(N3CC(NC(=O)Nc4cccc(OC(F)(F)F)c4)C3)cc2F)C(=O)N1` (stereo not shown) [Compound 18, 1-(1-(4-(2,6-dioxopiperidin-3-yl)-3,5-difluorophenyl)azetidin-3-yl)-3-(3-(trifluoromethoxy)phenyl)urea], the IC50 on CRBN-DDB1 lay in the range of 100 to 1000 nM. Moreover, the DC50 at GSPT1 was 30 to 300 nM.

For `O=C1CCC(c2c(F)cc(N3CC(NC(=O)Nc4ccc(F)c(OC(F)F)c4)C3)cc2F)C(=O)N1` (stereo not shown) [Compound 19, 1-(3-(difluoromethoxy)-4-fluorophenyl)-3-(1-(4-(2,6-dioxopiperidin-3-yl)-3,5-difluorophenyl)azetidin-3-yl)urea], the half-maximal inhibitory concentration (IC50) on CRBN-DDB1 is 100 to 1000 nM. Moreover, the DC50 on GSPT1 was not above 30 nM.

With `Cc1ccc(NC(=O)NC2CN(c3cc(F)c(C4CCC(=O)NC4=O)c(F)c3)C2)cc1OC(F)F` (stereo not shown) [Compound 21, 1-(3-(difluoromethoxy)-4-methylphenyl)-3-(1-(4-(2,6-dioxopiperidin-3-yl)-3,5-difluorophenyl)azetidin-3-yl)urea], the IC50 on CRBN-DDB1 was in the range of 100 to 1000 nM. Besides, on GSPT1, the DC50 was not above 30 nM.

For the compound `O=C1CCC(c2c(F)cc(N3CC(NC(=O)Nc4cc(F)cc(OC(F)F)c4)C3)cc2F)C(=O)N1` (stereo not shown) [Compound 22, 1-(3-(difluoromethoxy)-5-fluorophenyl)-3-(1-(4-(2,6-dioxopiperidin-3-yl)-3,5-difluorophenyl)azetidin-3-yl)urea], the IC50 on CRBN-DDB1 lay within 100 to 1000 nM. Moreover, on GSPT1, the DC50 is 30 to 300 nM.

Consider `Cc1ccccc1-c1ccc(NC(=O)NC2CN(c3cc(F)c(C4CCC(=O)NC4=O)c(F)c3)C2)cn1` (stereo not shown) [Compound 23, 1-(1-(4-(2,6-dioxopiperidin-3-yl)-3,5-difluorophenyl)azetidin-3-yl)-3-(6-(o-tolyl)pyridin-3-yl)urea], for which, at CRBN-DDB1, the IC50 was not above 100 nM. Also, the DC50 on GSPT1 is not above 30 nM.

With `Cc1c(Cl)cc(NC(=O)NC2CN(c3cc(F)c(C4CCC(=O)NC4=O)c(F)c3)C2)cc1CN1CCOCC1` (stereo not shown) [Compound 24, 1-(3-chloro-4-methyl-5-(morpholinomethyl)phenyl)-3-(1-(4-(2,6-dioxopiperidin-3-yl)-3,5-difluorophenyl)azetidin-3-yl) urea], the IC50 on CRBN-DDB1 was not above 100 nM. Further, the DC50 on GSPT1 is not above 30 nM.

Regarding `O=C1CCC(c2c(F)cc(N3CC(NC(=O)Nc4cc(-c5ccccc5)ccn4)C3)cc2F)C(=O)N1` (stereo not shown) [Compound 25, 1-(1-(4-(2,6-dioxopiperidin-3-yl)-3,5-difluorophenyl)azetidin-3-yl)-3-(4-phenylpyridin-2-yl) urea], the IC50 at CRBN-DDB1 is not above 100 nM. Further, the DC50 at GSPT1 is more than 300 nM.

In the case of `O=C1CCC(c2c(F)cc(N3CC(NC(=O)Nc4ccc(-c5ccccn5)cc4)C3)cc2F)C(=O)N1` (stereo not shown) [Compound 26, 1-(1-(4-(2,6-dioxopiperidin-3-yl)-3,5-difluorophenyl)azetidin-3-yl)-3-(4-(pyridin-2-yl)phenyl)urea], at CRBN-DDB1, the IC50 was not above 100 nM. At GSPT1, the DC50 was not above 30 nM.

Regarding `O=C1CCC(c2c(F)cc(N3CC(NC(=O)Nc4cc(OC(F)(F)F)ccn4)C3)cc2F)C(=O)N1` (stereo not shown) [Compound 27, 1-(1-(4-(2,6-dioxopiperidin-3-yl)-3,5-difluorophenyl)azetidin-3-yl)-3-(4-(trifluoromethoxy)pyridin-2-yl)urea], the IC50 at CRBN-DDB1 is not above 100 nM. Besides, the 50% degradation concentration (DC50) at GSPT1 was 30 to 300 nM.

With `O=C1CCC(c2c(F)cc(N3CC(NC(=O)Nc4cc(Cl)cc(OC(F)F)c4)C3)cc2F)C(=O)N1` (stereo not shown) [Compound 28, 1-(3-chloro-5-(difluoromethoxy)phenyl)-3-(1-(4-(2,6-dioxopiperidin-3-yl)-3,5-difluorophenyl)azetidin-3-yl)urea], at CRBN-DDB1, the IC50 lay within 100 to 1000 nM. The DC50 on GSPT1 lay in the range of 30 to 300 nM.

With `Cc1ccc(NC(=O)OC2CN(c3cc(Cl)c(C4CCC(=O)NC4=O)cc3F)C2)cc1Cl` (stereo not shown) [Compound 29], the IC50 on CRBN-DDB1 was more than 1000 nM. Also, the DC50 at GSPT1 was in the range of 30 to 300 nM.

With `C[C@@H]1CCCN1c1ccc(NC(=O)NC2CN(c3cc(F)c(C4CCC(=O)NC4=O)c(F)c3)C2)cn1` (stereo partly drawn) [Compound 30, 1-(1-(4-(2,6-dioxopiperidin-3-yl)-3,5-difluorophenyl)azetidin-3-yl)-3-(6-((R)-2-methylpyrrolidin-1-yl)pyridin-3-yl)urea], the IC50 on CRBN-DDB1 is not above 100 nM. Besides, the DC50 at GSPT1 was not above 30 nM.

For `Cc1cc(C)cc(NC(=O)OC2CN(c3ccc(C4CCC(=O)NC4=O)c(Cl)c3)C2)c1` (stereo not shown) [Compound 31, 1-(3-chloro-4-(2,6-dioxopiperidin-3-yl)phenyl)azetidin-3-yl (3,5-dimethylphenyl)carbamate], the IC50 at CRBN-DDB1 was in the range of 100 to 1000 nM. The DC50 on GSPT1 was more than 300 nM.
